Laboratory results taken from ChEMBL document CHEMBL5108038, “Development of Inhibitors Targeting the V-Domain Ig Suppressor of T Cell Activation Signal Pathway” (J Med Chem, 2022).

Key:
[1] = target: Programmed cell death protein 1/Programmed cell death 1 ligand 1 (Homo sapiens) (UniProt Q15116+Q9NZQ7); assay: Inhibition of recombinant PD-1/PD-L1 signalling route (unknown origin) at 10 uM by HTRF assay relative to control; format: protein-complex assay
[2] = target: T1, V-type immunoglobulin domain-containing suppressor of T-cell activation (Homo sapiens) (UniProt Q9H7M9); assay: Inhibition of recombinant VISTA signalling pathway (unknown origin) at 10 uM by HTRF assay relative to control
T1 sequence (whole entry): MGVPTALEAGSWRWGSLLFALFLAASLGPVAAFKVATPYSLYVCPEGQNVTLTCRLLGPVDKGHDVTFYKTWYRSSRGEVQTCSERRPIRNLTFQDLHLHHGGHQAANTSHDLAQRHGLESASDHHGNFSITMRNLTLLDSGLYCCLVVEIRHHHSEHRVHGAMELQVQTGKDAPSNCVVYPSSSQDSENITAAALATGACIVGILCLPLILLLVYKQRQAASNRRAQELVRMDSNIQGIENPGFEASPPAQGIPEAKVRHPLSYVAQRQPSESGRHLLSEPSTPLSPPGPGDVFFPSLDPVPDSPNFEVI

[3] = Inhibition of PD-L1 in human PBMC; format: cell-based
[4] = Antitumor immunity in PBMC (unknown origin) assessed as inhibition of VSIG8 binding to VISTA; format: functional, cell-based
[5] = target: T2, V-set and immunoglobulin domain-containing protein 8 (Homo sapiens, UniProt P0DPA2); assay: Binding affinity to human VSIG8 assessed as dissociation constant by MST method
T2 sequence (P0DPA2 whole entry): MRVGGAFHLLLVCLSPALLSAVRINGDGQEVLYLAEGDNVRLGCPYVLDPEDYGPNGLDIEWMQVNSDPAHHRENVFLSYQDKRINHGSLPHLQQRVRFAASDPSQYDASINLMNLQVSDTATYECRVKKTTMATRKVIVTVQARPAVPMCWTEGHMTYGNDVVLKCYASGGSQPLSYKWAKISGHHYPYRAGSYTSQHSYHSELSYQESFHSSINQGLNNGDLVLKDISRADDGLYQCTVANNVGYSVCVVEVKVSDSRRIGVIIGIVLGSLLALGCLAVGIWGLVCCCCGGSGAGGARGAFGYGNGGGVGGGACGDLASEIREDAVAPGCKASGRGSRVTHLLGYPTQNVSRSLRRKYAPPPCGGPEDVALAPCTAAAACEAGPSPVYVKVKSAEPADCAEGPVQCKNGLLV

[6] = target: T3, V-type immunoglobulin domain-containing suppressor of T-cell activation (Homo sapiens, UniProt Q9H7M9); assay: Binding affinity to VISTA (unknown origin) assessed as dissociation constant by MST method
T3 sequence (Q9H7M9 whole entry): T1 sequence (whole entry)

[7] = Inhibition of VISTA/VSIG3 protein protein interaction (unknown origin) by FRET method; design: species or system Homo sapiens

In the case of `C[C@@H](O)[C@H](NC(=O)C1(C(=O)N[C@@H](CC(N)=O)c2nc([C@H](N)CO)no2)CCCC1)C(=O)O`, the inhibition [1] is reported as 92% and the inhibition [2] is reported as 81%.
For `C[C@@H](O)[C@H](NC(=O)N[C@@H](CC(N)=O)c1nc([C@H](N)CO)no1)C(=O)O`, the EC50 [3] was 66.1 nM.
With `COc1cc(NC(=O)Nc2c(-c3ccncc3)[nH]c3ccc(Cl)cc23)cc(OC)c1` the EC50 [4] was 1460 nM and the Kd [5] was 6700 nM.
Molecule `Cc1ccc2nc(Nc3nc(O)cc(CSc4nnc(C)s4)n3)nc(C)c2c1` has a Kd [6] of 647 nM.
For `CN(C)c1n/c(=N\Cc2ccco2)ss1`, the IC50 [7] was 4800 nM.
